Measurements: PMC8480901 (PLoS ONE, 2021)
“And” between values parts separate entries of the source, which are not always exact repeats. Equal values may be shown once.

Test system: human PBMCs
Assay: LPS-induced cytokine and chemokine levels in human PBMC supernatant (Luminex, ELISA)
Assay type: cell-based
Details: for CCl2, % reduction / CXCL1 % reduction / CXCL2 % reduction / MMP9 % reduction / CCl2, Mean / CXCL1, Mean / CXCL2, Mean / MMP9, Mean / CCl2, individual value / CXCL1, individual value / CXCL2, individual value / MMP9, individual value: LPS-stimulated PBMC supernatant; for CCl2, Mean / CXCL1, Mean / CXCL2, Mean / MMP9, Mean: sample size 2; for CCl2, individual value / CXCL1, individual value / CXCL2, individual value / MMP9, individual value: single replicate
[1] = LPS-stimulated human PBMC supernatant, 0.03 µM

## CC[C@H]1OC(=O)[C@H](C)[C@@H](O[C@H]2C[C@@](C)(OC)[C@@H](O)[C@H](C)O2)[C@H](C)[C@@H](O[C@@H]2O[C@H](C)C[C@H](N(C)C)[C@H]2O)[C@](C)(O)C[C@@H](C)CN(C)[C@H](C)[C@@H](O)[C@]1(C)O [Azithromycin]
0.03 µM
  CCl2, % reduction: -5.55%
  CXCL1 % reduction: -4.76%
  CXCL2 % reduction: 2.43%
  MMP9 % reduction: -1.46%
  CCl2, Mean: 1334 pg/mL
  CXCL1, Mean: 6234 pg/mL
  CXCL2, Mean: 4935 pg/mL
  MMP9, Mean: 3019 pg/mL
  CCl2, individual value: 1307 pg/mL and 1361 pg/mL
  CXCL1, individual value: 6199 pg/mL and 6268 pg/mL
  CXCL2, individual value: 5023 pg/mL and 4847 pg/mL
  MMP9, individual value: 3072 pg/mL and 2966 pg/mL
0.1 µM
  CCl2, % reduction: -0.293%
  CXCL1 % reduction: -0.522%
  CXCL2 % reduction: 4.49%
  MMP9 % reduction: -3.72%
  CCl2, Mean: 1270 pg/mL
  CXCL1, Mean: 5984 pg/mL
  CXCL2, Mean: 4831 pg/mL
  MMP9, Mean: 3056 pg/mL
  CCl2, individual value: 1278 pg/mL and 1261 pg/mL
  CXCL1, individual value: 6035 pg/mL and 5932 pg/mL
  CXCL2, individual value: 4923 pg/mL and 4739 pg/mL
  MMP9, individual value: 3040 pg/mL and 3071 pg/mL
0.3 µM
  CCl2, % reduction: -5.66%
  CXCL1 % reduction: -5%
  CXCL2 % reduction: 1.16%
  MMP9 % reduction: -0.427%
  CCl2, Mean: 1335 pg/mL
  CXCL1, Mean: 6237 pg/mL
  CXCL2, Mean: 4999 pg/mL
  MMP9, Mean: 3002 pg/mL
  CCl2, individual value: 1355 pg/mL and 1316 pg/mL
  CXCL1, individual value: 6416 pg/mL and 6058 pg/mL
  CXCL2, individual value: 4805 pg/mL and 5194 pg/mL
  MMP9, individual value: 2940 pg/mL and 3064 pg/mL
1 µM
  CCl2, % reduction: -3.46%
  CXCL2 % reduction: 5.46%
  MMP9 % reduction: 0.166%
  CCl2, Mean: 1309 pg/mL
  CXCL1, Mean: 6015 pg/mL
  CXCL2, Mean: 4782 pg/mL
  MMP9, Mean: 2992 pg/mL
  CCl2, individual value: 1330 pg/mL and 1287 pg/mL
  CXCL1, individual value: 6000 pg/mL and 6030 pg/mL
  CXCL2, individual value: 4905 pg/mL and 4659 pg/mL
  MMP9, individual value: 2945 pg/mL
3 µM
  CCl2, % reduction: -21%
  CXCL1 % reduction: -11%
  CXCL2 % reduction: -6%
  MMP9 % reduction: -3.25%
  CCl2, Mean: 1528 pg/mL
  CXCL1, Mean: 6579 pg/mL
  CXCL2, Mean: 5371 pg/mL
  MMP9, Mean: 3048 pg/mL
  CCl2, individual value: 1488 pg/mL and 1567 pg/mL
  CXCL1, individual value: 6461 pg/mL and 6697 pg/mL
  CXCL2, individual value: 5747 pg/mL and 4996 pg/mL
  MMP9, individual value: 3040 pg/mL and 3056 pg/mL
10 µM
  CCl2, % reduction: -56%
  CXCL1 % reduction: -10%
  CXCL2 % reduction: 2%
  MMP9 % reduction: 7.45%
  CCl2, Mean: 1950 pg/mL
  CXCL1, Mean: 6547 pg/mL
  CXCL2, Mean: 4953 pg/mL
  MMP9, Mean: 2874 pg/mL
  CCl2, individual value: 1899 pg/mL and 2002 pg/mL
  CXCL1, individual value: 6457 pg/mL and 6637 pg/mL
  CXCL2, individual value: 4894 pg/mL and 5012 pg/mL
  MMP9, individual value: 2884 pg/mL and 2864 pg/mL
30 µM
  CCl2, % reduction: -138%
  CXCL1 % reduction: 8%
  CXCL2 % reduction: 10%
  MMP9 % reduction: 5%
  CCl2, Mean: 2956 pg/mL
  CXCL1, Mean: 5474 pg/mL
  CXCL2, Mean: 4573 pg/mL
  MMP9, Mean: 2917 pg/mL
  CCl2, individual value: 3047 pg/mL and 2865 pg/mL
  CXCL1, individual value: 5594 pg/mL and 5354 pg/mL
  CXCL2, individual value: 4609 pg/mL and 4537 pg/mL
  MMP9, individual value: 2925 pg/mL and 2908 pg/mL
100 µM
  CCl2, % reduction: -63%
  CXCL1 % reduction: 55%
  CXCL2 % reduction: 16%
  CCl2, Mean: 2038 pg/mL
  CXCL1, Mean: 2693 pg/mL
  CXCL2, Mean: 4264 pg/mL
  MMP9, Mean: 2975 pg/mL
  CCl2, individual value: 1970 pg/mL and 2105 pg/mL
  CXCL1, individual value: 2693 pg/mL
  CXCL2, individual value: 4200 pg/mL and 4328 pg/mL
  MMP9, individual value: 2977 pg/mL and 2972 pg/mL
[1]
  GM-CSF % reduction: 1.46%
  GM-CSF [pg/mL], Mean: 648 pg/mL
  GM-CSF [pg/mL], individual value: 664 pg/mL and 632 pg/mL
  IL-1β % reduction: 4.49%
  IL-1β [pg/mL], Mean: 12211 pg/mL
  IL-1β [pg/mL], individual value: 11901 pg/mL
  IL-6 % reduction: -0.732%
  IL-6 [pg/mL], Mean: 35164 pg/mL
  IL-6 [pg/mL], individual value: 34554 pg/mL and 35775 pg/mL
  IL-8 % reduction: -1.46%
  IL-8 [pg/mL], Mean: 3019 pg/mL
  IL-8 [pg/mL], individual value: 3072 pg/mL and 2966 pg/mL
  TNF-α % reduction: -24%
